Source: patent publication US9221827B2, “Antimicrobial compounds and methods of making and using the same” (Melinta Therapeutics, Inc., priority 2011, dated 2015)

Test system: Escherichia coli strain ATCC25922
Assay: standard microdilution assay to determine minimum inhibitory concentrations (MICs)
Type: cell-based
Conditions: Escherichia coli strain ATCC25922, microdilution
Experimental: The in vitro activity of the compounds of the present invention can be determined. Antimicrobial testing is typically performed to determine the minimum inhibitory concentration (MIC). Minimum inhibitory concentrations (MICs) are determined by the microdilution method in a final volume of 100 μl according to protocols outlined by The Clinical and Laboratory Standards Institute (CLSI). Performance standards for reference strains are assessed within the same experimental design to maintain quality control. See, for example, Clinical Laboratory Standards Institute: Methods for dilution antimicrobial susceptibility tests for bacteria that grow aerobically M7-A8. Approved Standard-Eighth Edition. Wayne, Pa.: CLSI; December 2008; and Clinical Laboratory Standards Institute: Performance Standards for Antimicrobial Susceptibility Testing M100-S20; Approved Standard-Twentieth Edition. Wayne, Pa.: CLSI; June 2010.
The compounds of the present invention were tested for antimicrobial activity. […] The compounds were run against Escherichia coli strain ATCC25922 using a standard microdilution assay to determine minimum inhibitory concentrations (MICs). […] A “N/A” means that data is unavailable. It will be recognized by one skilled in the art that the compounds can be assessed against other bacterial organisms and that the presentation of data for activity against Escherichia coli is illustrative and in no way is intended to limit the scope of the present invention. The compounds of the present invention can be assayed against a range of other microorganisms depending upon the performance activity desired to be gathered. Furthermore, the “+”, “−”, and “N/A” representation and the selection of a cutoff value of 16 micrograms/ml is also illustrative and in no way is intended to limit the scope of the present invention.

Row | SMILES | E. coli ATCC25922 MIC
1 | CC(N)CCCc1cc(-c2cc3cn(-c4ccc(C(CC(=O)O)NCCCNC(=N)N)cc4)c(=O)nc3[nH]2)cc(C(F)(F)F)c1 (stereo not drawn) [Compound 490] | − (a “−” indicates that the compound has an MIC value greater than 16 micrograms/ml)
2 | CC(N)CCCc1cc(-c2cc3cn(-c4ccc(C5(NCCCNC(=N)N)CC5)cc4)c(=O)nc3[nH]2)cc(C(F)(F)F)c1 (stereo not drawn) [Compound 485] | + (a “+” indicates that the compound has an MIC value of 16 micrograms/ml or less)
3 | COC(=O)C(NCCCNC(=N)N)c1ccc(-n2cc3cc(-c4cc(CCCC(C)N)cc(SC(F)(F)F)c4)[nH]c3nc2=O)cc1 (stereo not drawn) [Compound 498] | + (a “+” indicates that the compound has an MIC value of 16 micrograms/ml or less)
4 | NCCCCc1cc(Cl)c(Cl)c(-c2cc3cn(-c4ccc(CNCCCN=C(N)N)cc4)c(=O)nc3[nH]2)c1 [Compound 62] | + (a “+” indicates that the compound has an MIC value of 16 micrograms/ml or less)
5 | CC(CCN)Cc1cc(-c2cc3cn(-c4ccc(CNCCCNC(=N)N)cc4)c(=O)nc3[nH]2)cc(F)c1Cl (stereo not drawn) [Compound 129] | + (a “+” indicates that the compound has an MIC value of 16 micrograms/ml or less)
6 | N=C(N)NCCCNCc1ccc(-c2c[nH]c(NC(=O)Nc3ccc(C4CC4)cc3OCCCN)nc2=O)cc1 [Compound 184] | + (a “+” indicates that the compound has an MIC value of 16 micrograms/ml or less)
7 | N=C(N)NCCCNCc1ccc(-n2cc3cc(-c4cc(OC(F)(F)F)cc(C(F)(F)CCCN)c4)[nH]c3nc2=O)cc1 [Compound 112] | + (a “+” indicates that the compound has an MIC value of 16 micrograms/ml or less)
8 | NCCCCc1c(F)ccc(-c2cc3cn(-c4ccc(CNCCCN=C(N)N)cc4)c(=O)nc3[nH]2)c1F [Compound 84] | + (a “+” indicates that the compound has an MIC value of 16 micrograms/ml or less)
9 | C[C@H](N)COCc1cc(-c2cc3cn(-c4ccc([C@H](C)NCCCNC(=N)N)cc4)c(=O)nc3[nH]2)cc(C(F)(F)F)c1 [Compound 322] | + (a “+” indicates that the compound has an MIC value of 16 micrograms/ml or less)
10 | Cc1cc(CCCCN)cc(-c2cc3cn(-c4ccc(CNCCCNC(=N)N)cc4)c(=O)nc3[nH]2)c1F [Compound 133] | + (a “+” indicates that the compound has an MIC value of 16 micrograms/ml or less)
11 | N=C(N)NCCCNCc1ccc(-n2cc3cc(-c4cc(C[S+]([O-])CCN)ccc4F)[nH]c3nc2=O)cc1 (stereo not drawn) [Compound 23] | + (a “+” indicates that the compound has an MIC value of 16 micrograms/ml or less)
12 | N=C(N)NCCCCc1cc(-c2cc3cn(-c4ccc(CNCCCNC(=N)N)cc4)c(=O)nc3[nH]2)cc(-n2ccnn2)c1 [Compound 56] | + (a “+” indicates that the compound has an MIC value of 16 micrograms/ml or less)
13 | CCc1cc(CCCC(C)N)cc(-c2cc3cn(-c4ccc(CNCCCNC(=N)N)cc4)c(=O)nc3[nH]2)c1F (stereo not drawn) [Compound 301] | + (a “+” indicates that the compound has an MIC value of 16 micrograms/ml or less)
14 | CC(N)CCc1cc(Cl)c(F)c(-c2cc3cn(-c4ccc(CNCCCNC(=N)N)cc4)c(=O)nc3[nH]2)c1 (stereo not drawn) [Compound 257] | + (a “+” indicates that the compound has an MIC value of 16 micrograms/ml or less)
15 | COc1cc(F)c(-c2cc3cn(-c4ccc(CNCCCN=C(N)N)cc4)c(=O)nc3[nH]2)cc1CCCCN [Compound 83] | + (a “+” indicates that the compound has an MIC value of 16 micrograms/ml or less)
16 | C[C@@H](N)CCCc1cc(-c2cc3cn(-c4ccc(CNCCCNC(=N)N)cc4)c(=O)nc3[nH]2)cc(C(F)(F)F)c1 [Compound 249] | + (a “+” indicates that the compound has an MIC value of 16 micrograms/ml or less)
17 | N=C(N)NCCCNCc1ccc(-n2cc3cc(-c4cc(CCCCN)cc(C5CCC5)c4)[nH]c3nc2=O)cc1 [Compound 40] | + (a “+” indicates that the compound has an MIC value of 16 micrograms/ml or less)
18 | CC(N)CCCc1cc(Cl)c(F)c(-c2cc3cn(-c4ccc(CNCCCNC(=N)N)cc4)c(=O)nc3[nH]2)c1 (stereo not drawn) [Compound 268] | + (a “+” indicates that the compound has an MIC value of 16 micrograms/ml or less)
19 | N=C(N)NCCCNCc1ccc(-n2cc3cc(-c4cc(COCCN)cc(OC(F)(F)F)c4)[nH]c3nc2=O)cc1 [Compound 36] | + (a “+” indicates that the compound has an MIC value of 16 micrograms/ml or less)
20 | C[C@H](N)CCCc1cc(OC(F)(F)F)c(F)c(-c2cc3cn(-c4ccc([C@H](C)NCCCNC(=N)N)cc4)c(=O)nc3[nH]2)c1 [Compound 316] | + (a “+” indicates that the compound has an MIC value of 16 micrograms/ml or less)
21 | CC(C)(N)CCCc1cc(OC(F)(F)F)cc(-c2cc3cn(-c4ccc(CNCCCNC(=N)N)cc4)c(=O)nc3[nH]2)c1 [Compound 131] | + (a “+” indicates that the compound has an MIC value of 16 micrograms/ml or less)
22 | C[S+]([O-])Cc1cc(CCCCN)cc(-c2cc3cn(-c4ccc(CNCCCNC(=N)N)cc4)c(=O)nc3[nH]2)c1 (stereo not drawn) [Compound 2] | + (a “+” indicates that the compound has an MIC value of 16 micrograms/ml or less)
23 | N=C(N)NCCCNCc1ccc(-n2cc3cc(-c4cc(CCCN)cc(Cl)c4Cl)[nH]c3nc2=O)cc1 [Compound 224] | + (a “+” indicates that the compound has an MIC value of 16 micrograms/ml or less)
24 | CC(N)CCCc1cc(-c2cc3cn(-c4ccc(C(NCCCNC(=N)N)C(=O)O)cc4)c(=O)nc3[nH]2)cc(C(F)(F)F)c1 (stereo not drawn) [Compound 497] | − (a “−” indicates that the compound has an MIC value greater than 16 micrograms/ml)
25 | N=C(N)NCCCNCc1ccc(-c2c[nH]c(NC(=O)Nc3c(CO)cccc3OCCCN)nc2=O)cc1 [Compound 190] | − (a “−” indicates that the compound has an MIC value greater than 16 micrograms/ml)
26 | N=C(N)NCCCNCc1ccc(-c2c[nH]c(NC(=O)Nc3c(OCCCN)cccc3C3CC3)nc2=O)cc1 [Compound 189] | − (a “−” indicates that the compound has an MIC value greater than 16 micrograms/ml)
27 | CCc1cc(CCCCN)cc(-c2cc3cn(-c4ccc(CNCCCNC(=N)N)cc4)c(=O)nc3[nH]2)c1C(F)(F)F [Compound 233] | + (a “+” indicates that the compound has an MIC value of 16 micrograms/ml or less)
28 | CC(CN)Cc1cc(-c2cc3cn(-c4ccc(CNCCCNC(=N)N)cc4)c(=O)nc3[nH]2)cc(C(F)(F)F)c1 (stereo not drawn) [Compound 242] | + (a “+” indicates that the compound has an MIC value of 16 micrograms/ml or less)
29 | CC(N)CCCc1cc(Cl)c(F)c(-c2cc3cn(-c4ccc(C(CC(=O)O)NCCCNC(=N)N)cc4)c(=O)nc3[nH]2)c1 (stereo not drawn) [Compound 489] | + (a “+” indicates that the compound has an MIC value of 16 micrograms/ml or less)

Same assay, conditions: Escherichia coli strain ATCC25922, microdilution; read-out: E. coli ATCC25922 MIC

Row | SMILES | MIC
30 | C[C@H](N)CCCc1cc(Cl)c(F)c(-c2cc3cn(-c4ccc([C@H](C)NCCCNC(=N)N)cc4)c(=O)nc3[nH]2)c1 [Compound 234] | ≤ 16 µg/mL

Same assay, conditions: Escherichia coli strain ATCC25922, standard microdilution assay

Row | SMILES | E. coli ATCC25922 MIC
31 | CC(NCCCNC(=N)N)c1ccc(-n2cc3cc(-c4cc(OC(F)(F)F)cc(C5CCC(CN)O5)c4)[nH]c3nc2=O)cc1 (stereo not drawn) [Compound 438] | + (a “+” indicates that the compound has an MIC value of 16 micrograms/ml or less)
32 | C[C@H](N)CCCc1cc(-c2cc3cn(-c4ccc(CN(C)CCCNC(=N)N)cc4)c(=O)nc3[nH]2)cc(C(F)(F)F)c1 [Compound 339] | + (a “+” indicates that the compound has an MIC value of 16 micrograms/ml or less)
33 | Cc1cc(CCC[C@H](C)N)cc(-c2cc3cn(-c4ccc(CNCCCNC(=N)N)cc4)c(=O)nc3[nH]2)c1C [Compound 467] | + (a “+” indicates that the compound has an MIC value of 16 micrograms/ml or less)
34 | C[C@H](NCCCNC(=N)N)c1ccc(-n2cc3cc(-c4cc(CC[C@@H](C)N)cc(C(F)(F)F)c4)[nH]c3nc2=O)cc1 [Compound 410] | + (a “+” indicates that the compound has an MIC value of 16 micrograms/ml or less)
35 | CC(C)(N)CCCc1cc(SC(F)(F)F)cc(-c2cc3cn(-c4ccc(CN)cc4)c(=O)nc3[nH]2)c1 [Compound 335] | + (a “+” indicates that the compound has an MIC value of 16 micrograms/ml or less)
36 | CCC[C@H](NCCCNC(=N)N)c1ccc(-n2cc3cc(-c4cc(CCC[C@H](C)N)cc(SC(F)(F)F)c4)[nH]c3nc2=O)cc1 [Compound 416] | + (a “+” indicates that the compound has an MIC value of 16 micrograms/ml or less)
37 | CC(N)CCCc1cc(Cl)c(F)c(-c2cc3cn(-c4ccc(C(C)NCCCNC(N)=NC(C)C)cc4)c(=O)nc3[nH]2)c1 (stereo not drawn) [Compound 364] | + (a “+” indicates that the compound has an MIC value of 16 micrograms/ml or less)
38 | C[C@H](N)CCCc1cc2c(c(-c3cc4cn(-c5ccc([C@H](C)NCCCNC(=N)N)cc5)c(=O)nc4[nH]3)c1)COC2 [Compound 441] | + (a “+” indicates that the compound has an MIC value of 16 micrograms/ml or less)
39 | C[C@H](N)CCCc1cc(-c2cc3cn(-c4ccc([C@H](C)NCCCNC(=N)N)cc4)c(=O)nc3[nH]2)cc2c1CCCC2 [Compound 417] | + (a “+” indicates that the compound has an MIC value of 16 micrograms/ml or less)
